Data as given in PMC9538480, “Rutin bioconjugates as potential nutraceutical prodrugs: An in vitro and in ovo toxicological screening” (Frontiers in Pharmacology, 2022).

Legend:
chorioallantoic membrane = assay: HET-CAM in ovo irritant potential; type: in vivo, Gallus domesticus; details: for vascular irritation signs (hemorrhage, lysis, coagulation) in words: 5 min after application; for tC = time of coagulation / tH = time of hemorrage / tL = time of lysis / Irritation score (IS): test compounds 100 µM, 5 min observation; for Irritation score (IS): 600 μl
Method: To perform a toxicological screening and to verify the irritant potential of the RUT-O and RUT-L were used chicken eggs (Gallus domesticus). Specifically, the eggs were prepared as follows: 1) after being washed and disinfected with 70% ethanol (v/v), the eggs were placed in an incubator in a horizontal posture; 2) on the fourth day of incubation, a small hole was made through which a volume of approximately 7–8 ml of albumen was extracted in order to facilitate the detachment of the chorioallantoic membrane from the inner shell of the egg; 3) on the fifth day of incubation, a window was cut in the upper part of the egg to allow the visualization of the blood vessels, which was then covered with adhesive tape and the eggs were placed in the incubator until the day of the beginning of the experiment. Using the Hen’s Egg Test—Chorioallantoic Membrane (HET-CAM) assay, the potential in ovo toxicity of the samples was evaluated. […] [Kis et al., 2022]). […] In order to observe any vascular effects, a stereomicroscope (Discovery 8 Stereomicroscope Zeiss, Göttingen, and Germany) was used, and images were taken with a Zeiss Axio CAM 105 color camera before and 5 min after the application of the samples. The same experimental protocol was applied for the parent compounds—RUT, OA, and LA.

[1] = tested on: H9c2(2-1), HaCaT, and HepaRG cells; type: cell-based; details: 100 µM, 24 h; for round cells floating in the culture medium: bright field; for impact on cells' adherence or confluency: compared to control cells
Method: To verify the impact of PCs (RUT, OA and LA) and REs (RUT-O and RUT-L) on the morphology and confluence of H9c2(2-1), HaCaT, and HepaRG cells, a microscopic examination was performed. The cells were observed under bright field illumination and photographed at the end of the 24 h treatment period using Cytation 1 (BioTek Instruments Inc., Winooski, VT, United States). The photographs were processed using the Gen5™ Microplate Data Collection and Analysis Software (BioTek Instruments Inc., Winooski, VT, United States).

in vitro [2] = type: cell-based, rat; details: rat
Method: (§1) To evaluate the in vitro effect of rutin esters (REs) on cells’ viability, the MTT technique was applied following a 24 h treatment of H9c2(2-1), HepaRG, and HaCaT cells with RUT-O and RUT-L (1, 10, 25, 50, and 100 µM). The parent compounds (PCs)—RUT, OA, and LA were also tested. DMSO was used as solvent for all test compounds (RUT, OA, LA, RUT-O, and RUT-L). The impact of DMSO at tested concentrations (1, 10, 25, 50, and 100 µM) was also assessed in vitro. At the end of the treatment, fresh media (100 µl) and the MTT reagent (10 µl) were added in each well, and the plates were incubated for 3 h at 37°C. The final steps were as follows: addition of the solubilization solution (100 µl/well), incubation of the plates at room temperature for 30 min, protected from light, and absorbance measurement at two wavelengths (570 and 630 nm) using Cytation 5 (BioTek Instruments Inc., Winooski, VT, United States). The results were expressed as percentage (%) of viable cells normalized to control cells (unstimulated cells).

HUVEC endothelial cells = details: ref Bass et al., 2020; cited from earlier work
H9c2(2-1) cells [3] = type: cell-based, rat; details: 100 µM, 24 h, Hoechst 33342
Method: (§2) The potential toxicity of 100 μM RUT, OA, LA, RUT-O, and RUT-L at nuclear level was tested by applying the Hoechst 33342 staining assay protocol according to the manufacturer’s (Thermo Fisher Scientific, Inc., Waltham, MA, United States) recommendations. In brief, H9c2(2-1), HepaRG, and HaCaT cells were seeded in 12-well plates (10^5 cells/1.5 ml/well) and treated with the test compounds for 24 h. After the stimulation period, the media was removed, and the staining solution diluted 1:2000 in PBS was added (500 µl/well). The plates were incubated for 10 min at room temperature, protected from light. Finally, the staining solution was washed with PBS and the pictures were taken using Cytation 1 (BioTek Instruments Inc., Winooski, VT, United States) and analyzed by the means of Gen5™ Microplate Data Collection and Analysis Software (BioTek Instruments Inc., Winooski, VT, United States). Staurosporine (STP) 5 µM was selected as positive control for apoptosis.

HepaRG cells [4] = type: cell-based, human; details: 100 µM, 24 h, Hoechst 33342
Method: as §2

HaCaT cells [5] = type: cell-based, human; details: 100 µM, 24 h, Hoechst 33342
Method: as §2

in vitro [6] = type: cell-based, human; details: human
Method: as §1

HepaRG cells [7] = assay: Wound healing (scratch) assay; type: cell-based, human; details: 25 µM, 24 h, control 44.31%
Method: The influence of RUT-O and RUT-L on the migration of cells was assessed by performing the wound healing (scratch) assay. In brief, the cells (10^5 cells/ml/well) were cultured in 24-well plates (Corning Costar), and an automatic scratch was made in each well by using the AutoScratchTM Wound Making Tool provided by BioTek® Instruments Inc. (Winooski, VT, United States). The cells were further treated with the flavonoid esters at the concentration of 25 μM for 24 h, and representative images of the wound area were taken at 0 and 24 h using Cytation 1 (BioTek® Instruments Inc., Winooski, VT, United States). The wound widths were measured using Gen5 TM Microplate Data Collection and Analysis Software (BioTek® Instruments Inc., Winooski, VT, United States). The effects on cell migration were quantified by calculating the wound healing rates (%) using a formula presented in our previous studies ([[…] et al., 2020]).

HaCaT cells [8] = type: cell-based, human; details: 24 h
Method: as §1

H9c2(2-1) cells [9] = assay: in vitro; type: cell-based, rat; details: H9c2(2-1), 24 h; for cell viability normalized to control: MTT
Method: as §1

HepaRG cells [10] = assay: in vitro; type: cell-based, human; details: 100 µM
Method: as §1

[11] = tested on: reconstructed human epidermis 3D tissues—EpiDerm™ (EPI-212); details: for tissue viability compared to negative control (DPBS-treated inserts) / skin irritation classification (OECD Test Guideline 439, irritant if viability below 50%): 100 µM; for skin irritation classification (OECD Test Guideline 439, irritant if viability below 50%): EpiDerm
Source text: The reconstructed human epidermal model—EpiDerm™ (EPI-212, [MatTek Corporation protocol, 2021], Bratislava, Slovakia) (Lot no. 36155) is a multilayered differentiated human epidermis model made of normal human-derived epidermal keratinocytes, validated as test method for the OECD 439 (In vitro skin irritation: reconstructed human epidermis test methods) ([OECD, 2021]). The EpiDerm™ tissues (prepared as inserts) that served as model for the skin irritation test together with the specific culture media (assay medium—EPI-100-NMM), Dulbecco’s phosphate buffered saline (DPBS) (negative control), sodium dodecyl sulphate (SDS) 5% and the MTT kit were provided by the manufacturer (MatTek Corporation, Bratislava, Slovakia).
The in vitro skin irritation test (EPI-212-SIT) was performed according to the manufacturer’s recommendations and to the data from the literature [MatTek Corporation protocol—In vitro EpiDerm Skin Irritation Test (EPI-200-SIT); [Kandarova et al., 2018]]. […] The same protocol was performed for the positive (5% SDS in saline) and negative (sterile DPBS) controls. The tissue viability (%) was calculated according to the formulas specified in the literature ([Pinzaru et al., 2021]).

| SMILES | vascular irritation signs (hemorrhage, lysis, coagulation) in words (chorioallantoic membrane) | round cells floating in the culture medium [1] | impact on cells' adherence or confluency [1] | nuclear morphology changes (H9c2(2-1) cells [3]) | nuclear morphology changes (HepaRG cells [4]) | nuclear morphology changes (HaCaT cells [5]) | tC = time of coagulation (chorioallantoic membrane) [s] | tH = time of hemorrage (chorioallantoic membrane) [s] | tL = time of lysis (chorioallantoic membrane) [s] | Irritation score (IS) (chorioallantoic membrane) | wound healing rate (HepaRG cells [7]) [%] | tissue viability compared to negative control (DPBS-treated inserts) ([11]; EpiDerm inserts) | skin irritation classification (OECD Test Guideline 439, irritant if viability below 50%) [11] | further results |
| --- | --- | --- | --- | --- | --- | --- | --- | --- | --- | --- | --- | --- | --- | --- |
| CCCCCCCC/C=C\CCCCCCCC(=O)O [OA, oleic acid] | No signs of vascular irritation | several round cells floating in the culture medium | no negative impact | no significant nuclear alterations | no significant nuclear alterations | no significant nuclear alterations | – | – | – | – | – | – | – | viability at 24 h, 50 µM (in vitro [2]): 89.8%; viability at 24 h, 100 µM (in vitro [2]): 82.9%; doses inducing cytotoxicity in HUVEC endothelial cells (HUVEC endothelial cells): above 200 µM; viability at 24 h, 50 µM (in vitro [6]): 87.9%; viability at 24 h, 100 µM (in vitro [6]): 76.4% |
| CCCCCCCC/C=C\CCCCCCCC(=O)OC1C(C)OC(OCC2OC(Oc3c(-c4ccc(O)c(O)c4)oc4cc(O)cc(O)c4c3=O)C(O)C(O)C2O)C(O)C1O (stereo not shown) [RUT-O, rutin oleate] | no significant irritant effects | several round cells floating in the culture medium | no negative impact | several apoptotic-like features | chromatin condensation | nuclear fragmentation and formation of apoptotic bodies | 286 | 300 | 291 | 0.70 | 27.18 | over 100% | non-irritant | cell viability normalized to control (HaCaT cells [8]; 100 µM, MTT): 78.32%; cell viability normalized to control (H9c2(2-1) cells [9]; 50 µM): 79.03%; cell viability normalized to control (H9c2(2-1) cells [9]; 100 µM): 77.53%; cell viability normalized to control (HepaRG cells [10]; HepaRG, 24 h, MTT): 83.17% |
| CCCCCCCCCCCCOS(=O)(=O)[O-].[Na+] [SDS 1%, sodium dodecyl sulphate] | the most obvious signs of vascular irritation | – | – | – | – | – | 15 | 22 | 20 | 19.78 | – | – | – | tissue viability ([11]; EpiDerm inserts, positive control 5% solution): 10% |
| CCCCC/C=C\C/C=C\CCCCCCCC(=O)O[C@@H]1[C@@H](O)[C@@H](O)[C@H](OC[C@H]2O[C@@H](Oc3c(-c4ccc(O)c(O)c4)oc4cc(O)cc(O)c4c3=O)[C@H](O)[C@@H](O)[C@@H]2O)O[C@H]1C [RUT-L, rutin linoleate] | no significant irritant effects | – | no negative impact | No significant changes | No significant changes | No significant changes | 290 | 300 | 295 | 0.49 | 22.77 | over 100% | non-irritant | effect on cell viability (HaCaT cells [8]; 1-100 µM): stimulatory effect at all concentrations; effect on cell viability (H9c2(2-1) cells [9]; lowest concentrations (1 and 10 µM)): stimulatory effect; cell viability normalized to control (HepaRG cells [10]): 101.25% |
